Among the data in ChEMBL document CHEMBL5055668 (J Med Chem, 2021) are inhibition in vivo, inhibition and IC50 values, retold here.

Active and inactive are the calls of the source. No cut-off for these calls is given here.

Macrophage colony-stimulating factor 1 receptor, sequence (P07333 whole entry): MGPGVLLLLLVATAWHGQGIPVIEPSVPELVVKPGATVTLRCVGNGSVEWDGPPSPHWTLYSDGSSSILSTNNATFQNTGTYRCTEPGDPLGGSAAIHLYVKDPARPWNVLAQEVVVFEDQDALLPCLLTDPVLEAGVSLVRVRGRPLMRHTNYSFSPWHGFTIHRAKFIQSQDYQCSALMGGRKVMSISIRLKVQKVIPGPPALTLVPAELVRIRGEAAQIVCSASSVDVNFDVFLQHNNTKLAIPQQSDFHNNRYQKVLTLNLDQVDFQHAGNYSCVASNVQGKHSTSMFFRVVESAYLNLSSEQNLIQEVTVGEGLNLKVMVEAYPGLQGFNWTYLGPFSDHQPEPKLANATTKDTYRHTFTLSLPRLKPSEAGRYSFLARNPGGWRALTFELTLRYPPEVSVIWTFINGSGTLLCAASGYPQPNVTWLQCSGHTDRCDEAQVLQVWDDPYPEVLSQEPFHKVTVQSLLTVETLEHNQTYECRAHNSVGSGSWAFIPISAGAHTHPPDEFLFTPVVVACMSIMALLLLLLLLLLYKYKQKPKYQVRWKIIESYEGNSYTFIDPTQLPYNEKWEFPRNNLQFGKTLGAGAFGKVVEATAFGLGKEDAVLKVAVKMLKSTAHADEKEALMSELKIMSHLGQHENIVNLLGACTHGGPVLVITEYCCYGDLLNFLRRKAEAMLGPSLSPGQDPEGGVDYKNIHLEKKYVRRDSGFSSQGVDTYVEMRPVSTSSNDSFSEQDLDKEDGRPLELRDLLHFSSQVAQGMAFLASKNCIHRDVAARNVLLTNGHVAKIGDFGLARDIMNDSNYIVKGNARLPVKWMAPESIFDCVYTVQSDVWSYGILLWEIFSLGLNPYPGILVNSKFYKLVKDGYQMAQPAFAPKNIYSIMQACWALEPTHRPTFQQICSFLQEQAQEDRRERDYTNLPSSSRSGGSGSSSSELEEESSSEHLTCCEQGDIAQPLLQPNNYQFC

In the first test the test system is MC-38. Briefly: Antitumor activity against mouse MC38 cells allografted in C57BL6 mouse assessed as tumor growth inhibition at 20 mg/kg, po administered daily for 2 weeks by caliper method. The following applies: MC-38, po, 336 h, read-out: TGI.
`FC(F)(F)c1ccc(CNc2ccc(Cc3c[nH]c4ncc(Cl)cc34)cn2)cn1` [PEXIDARTINIB]: the inhibition in vivo at 20 mg/kg is 40.3%.

The next test addresses T1, Macrophage colony-stimulating factor 1 receptor (Mus musculus) (UniProt P09581).
T1 sequence (whole entry): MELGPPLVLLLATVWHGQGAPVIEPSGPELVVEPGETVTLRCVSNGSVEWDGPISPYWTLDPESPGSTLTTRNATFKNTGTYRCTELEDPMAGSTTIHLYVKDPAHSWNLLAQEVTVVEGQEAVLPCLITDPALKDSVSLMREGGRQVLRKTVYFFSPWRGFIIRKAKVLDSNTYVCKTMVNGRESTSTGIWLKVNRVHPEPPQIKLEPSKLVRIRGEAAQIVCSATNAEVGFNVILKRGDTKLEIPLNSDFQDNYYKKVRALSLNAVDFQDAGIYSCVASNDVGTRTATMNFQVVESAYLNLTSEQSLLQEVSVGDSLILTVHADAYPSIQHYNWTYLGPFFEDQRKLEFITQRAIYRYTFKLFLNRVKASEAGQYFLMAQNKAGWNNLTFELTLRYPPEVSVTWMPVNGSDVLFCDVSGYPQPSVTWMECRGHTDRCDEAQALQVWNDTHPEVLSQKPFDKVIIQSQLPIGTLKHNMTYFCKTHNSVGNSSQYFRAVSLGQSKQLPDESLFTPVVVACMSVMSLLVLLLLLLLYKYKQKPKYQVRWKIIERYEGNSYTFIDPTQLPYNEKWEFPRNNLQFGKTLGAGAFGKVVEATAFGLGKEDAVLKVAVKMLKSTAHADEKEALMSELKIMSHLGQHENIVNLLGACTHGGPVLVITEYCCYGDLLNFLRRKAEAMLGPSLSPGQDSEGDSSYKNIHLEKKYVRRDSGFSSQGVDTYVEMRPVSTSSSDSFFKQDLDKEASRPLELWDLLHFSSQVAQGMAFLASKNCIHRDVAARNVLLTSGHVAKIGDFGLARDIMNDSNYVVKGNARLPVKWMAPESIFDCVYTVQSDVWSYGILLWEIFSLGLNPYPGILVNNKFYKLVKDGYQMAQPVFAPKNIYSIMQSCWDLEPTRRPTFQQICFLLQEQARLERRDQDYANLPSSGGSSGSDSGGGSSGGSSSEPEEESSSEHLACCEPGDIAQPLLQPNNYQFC
Kind of test: Inhibition of CSF-1R signaling pathway in C57BL/6 mouse BMDM cells assessed as reduction in M-CSF induced CSF-1R phosphorylation at 100 nM preincubated for 12 hrs followed by M-CSF stimulation for 30 mins by Western blot analysis.
Conditions: not given
The class given is cell-based. In general terms: In western blotting, separated proteins are transferred to a membrane and probed.
As to `Cc1[nH]c(/C=C2\C(=O)Nc3cc(NC(=O)Nc4cc(C(C)(C)C)on4)ccc32)c(C)c1NC(=O)C1CCCCN1` (configuration not stated), the inhibition result is “Active”. In the case of `Cc1[nH]c(/C=C2\C(=O)Nc3cc(NC(=O)Nc4cc(C(C)(C)C)on4)ccc32)c(C)c1NC(=O)[C@@H]1CCNC1`, the inhibition result is “Active”. Take `CCCNCCC(=O)Nc1c(C)[nH]c(/C=C2\C(=O)Nc3cc(NC(=O)Nc4cc(C(C)(C)C)on4)ccc32)c1C`: the inhibition result was “Active”.

Regarding `Cc1[nH]c(/C=C2\C(=O)Nc3cc(NC(=O)Nc4cc(C(C)(C)C)on4)ccc32)c(C)c1NC(=O)C1CCCNC1` (configuration not stated), the inhibition entry is “Active”. As for `CCNCCC(=O)Nc1c(C)[nH]c(/C=C2\C(=O)Nc3cc(NC(=O)Nc4cc(C(C)(C)C)on4)ccc32)c1C`, the inhibition result is “Active”. Regarding `Cc1[nH]c(/C=C2\C(=O)Nc3cc(NC(=O)Nc4cc(C(C)(C)C)on4)ccc32)c(C)c1NC(=O)CCN1CCCCC1`, the inhibition entry was “Active”. Regarding `Cc1[nH]c(/C=C2\C(=O)Nc3cc(NC(=O)Nc4cc(C(C)(C)C)on4)ccc32)c(C)c1NC(=O)CCN(C)C`, the inhibition entry was “Active”. As to `Cc1[nH]c(/C=C2\C(=O)Nc3cc(NC(=O)Nc4cc(C(C)(C)C)on4)ccc32)c(C)c1NC(=O)CCN1CCN(C)CC1`, the inhibition result was “Active”. For `Cc1[nH]c(/C=C2\C(=O)Nc3cc(NC(=O)Nc4cc(C(C)(C)C)on4)ccc32)c(C)c1NC(=O)CCN1CCCC1`, the inhibition entry was “Active”. Take `FC(F)(F)c1ccc(CNc2ccc(Cc3c[nH]c4ncc(Cl)cc34)cn2)cn1` [PEXIDARTINIB]: the inhibition result was “Active”.

The next test has as its target Macrophage colony-stimulating factor 1 receptor (Homo sapiens, UniProt P07333).
Conditions: not given
Broadly, the IC50 is the concentration that inhibits the measured activity by half. In turn, `CCN(CC)CCNC(=O)c1c(C)[nH]c(/C=C2\C(=O)Nc3cc(NC(=O)NC4CCN(C)CC4)ccc32)c1C` gave a half-maximal inhibitory concentration (IC50) greater than 3 µM.
